Active and inactive are the calls of the source. How the calls were made is not given here.

Drawing on PubChem BioAssay AID977613 (Broad Institute, 2014), this text covers active concentration for 64 molecules.

The assay relates to Broad 7084-01 inhibitor HTS, set 2. As to the kind of experiment: single-concentration hits, screen 7084 set 2 (AID 977613).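 Further: host cells are infected with parasite promastigotes that become internalized.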
Turning to `CC(C)C#Cc1ccc([C@H]2[C@@H](CO)N3C(=O)CN(C(=O)Cc4ccccc4)C[C@H]23)cc1`, the active concentration was > 10 µM (inactive).

Consider `COC(=O)[C@H]1[C@H](CO)[C@H]2Cn3c(ccc(C4=CCCCC4)c3=O)[C@H]2N1Cc1ccc2c(c1)OCO2`, for which the active concentration was > 10 µM (inactive).

In the case of `O=C(Nc1cccc(F)c1)N1CCCCN2[C@H](C1)[C@@H](c1ccc(C#Cc3cccnc3)cc1)[C@@H]2CO`, the active concentration is > 10 µM (inactive).

On to `COCC(=O)N1CC[C@H]2[C@@H]1c1cc(-c3ccc(F)cc3)ccc1N(C)[C@H]2CO`, for which the active concentration was > 10 µM (inactive).

With `CC=Cc1ccc2n(c1=O)C[C@H]1[C@H](CO)[C@@H](C(=O)NCCC)N(Cc3cocn3)[C@@H]21` (mixture of isomers), the active concentration was > 10 µM (inactive).

For the molecule `O=C1CNC[C@H]2[C@@H](c3ccc(C#CC4CCCCC4)cc3)[C@@H](CO)N12`, the active concentration was > 10 µM (inactive).

`O=C(c1ccncc1)N1CC2(C1)[C@@H](c1ccccc1)[C@@H](CO)N2CC1CCOCC1`: the active concentration is > 10 µM (inactive).

On to `COc1ccc2c3c([nH]c2c1)[C@@H](CO)N(C(=O)c1cccnc1)CC31CCN(C(=O)CN(C)C)CC1`, for which the active concentration was > 10 µM (inactive).

In the case of `CS(=O)(=O)N1C[C@H](O)COC[C@@H]2O[C@@H](CC(=O)NCc3ccc(-c4ccccc4)cc3)CC[C@H]21`, the active concentration was > 10 µM (inactive).

As for `COc1ccccc1-c1ccc([C@@H]2[C@@H](CO)N(CC3CC3)C23CN(S(C)(=O)=O)C3)cc1`, the active concentration is > 10 µM (inactive).

For the molecule `O=C(O)[C@H]1[C@H](CO)[C@H]2Cn3c(ccc(-c4ccc(F)cc4)c3=O)[C@@H]1N2CC1CCCCC1`, the active concentration is > 10 µM (inactive).

Turning to `O=C(C[C@H]1CC[C@H]2[C@@H](COC[C@@H](O)CN2Cc2cccc(C(F)(F)F)c2)O1)NCc1ccccc1`, the active concentration was > 10 µM (inactive).

`CN1C(=O)c2cc(NC(=O)Cc3cccs3)ccc2OC[C@H]2O[C@H](CC(=O)N[C@H]3CCN(Cc4ccccc4)C3)CC[C@H]21`: the active concentration was > 10 µM (inactive).

`COc1cccc(-c2ccc3c(c2)[C@H]2[C@H](CCN2S(=O)(=O)c2ccccc2C)[C@@H](CO)N3)c1`: the active concentration is > 10 µM (inactive).

Take `CN(C)CC(=O)N1[C@@H](CO)[C@@H](c2ccccc2)C12CN(CCC(F)(F)F)C2`: the active concentration is > 10 µM (inactive).

Turning to `O=C(C[C@H]1CC[C@H]2[C@@H](COC[C@@H](O)CN2C(=O)c2ccc3c(c2)OCO3)O1)NC1CCC1`, the active concentration is > 10 µM (inactive).

On to `O=C1CN(S(=O)(=O)Cc2ccccc2)C[C@@H]2[C@H](c3ccc(C#Cc4ccccc4)cc3)[C@H](CO)N12`, for which the active concentration was > 10 µM (inactive).

On to `COCC(=O)N1CC[C@@H]2[C@H]1c1cc(-c3ccc(F)cc3)ccc1N(C)[C@@H]2CO`, for which the active concentration was > 10 µM (inactive).

For `CN1C(=O)c2cc(NC(=O)C3CCOCC3)ccc2OC[C@H]2O[C@@H](CC(=O)NCC3CCCCC3)CC[C@H]21`, the active concentration is > 10 µM (inactive).

Take `COc1ccc2c3c([nH]c2c1)[C@@H](CO)N(C(=O)C1CCC1)CC31CN(C(=O)c2ccccn2)C1`: the active concentration is > 10 µM (inactive).

In the case of `COc1ccccc1CN1[C@@H](CO)[C@@H]2c3ccccc3N(C(=O)c3cccnc3)C[C@@H]21`, the active concentration is > 10 µM (inactive).

With `COc1ccc2c3c([nH]c2c1)[C@@H](CO)N(C(=O)CN(C)C)CC31CCN(Cc2cncnc2)CC1`, the active concentration is > 10 µM (inactive).

With `COc1ccc(NC(=O)N2CCCCN3[C@@H](CO)[C@H](c4ccc(-c5ccccc5F)cc4)[C@@H]3C2)cc1`, the active concentration is > 10 µM (inactive).

With `COc1ccccc1CN1[C@@H]2CN(C(=O)C3CCCCC3)c3ccccc3[C@@H]2[C@@H]1CO`, the active concentration was > 10 µM (inactive).

In the case of `CCC(=O)N1CC2(CN(C(C)=O)C2)c2c([nH]c3cc(OC)ccc23)[C@@H]1CO`, the active concentration was > 10 µM (inactive).

In the case of `CN1[C@H](CO)[C@H]2c3ccccc3N(C(=O)Nc3ccccc3F)C[C@H]21`, the active concentration was > 10 µM (inactive).

In the case of `O=C(C[C@H]1CC[C@@H]2[C@H](COC[C@@H](O)CN2S(=O)(=O)c2cccc(Cl)c2)O1)Nc1ccc(-c2ccccc2)cc1`, the active concentration is > 10 µM (inactive).

In the case of `O=C(C1CCC1)N1CC2(C1)[C@H](c1ccccc1)[C@H](CO)N2Cc1cccnc1`, the active concentration was > 10 µM (inactive).

For `O=C1CNC[C@H]2[C@H](c3ccc(C4=CCCC4)cc3)[C@H](CO)N12`, the active concentration was > 10 µM (inactive).

As to `CS(=O)(=O)N1[C@@H]2c3ccc(C4=CCCC4)c(=O)n3C[C@@H]2[C@@H](CO)[C@@H]1C(=O)NCCc1ccncc1`, the active concentration was > 10 µM (inactive).

For `O=C(C1CCOCC1)N1CC(=O)N2[C@@H](CO)[C@H](c3ccc(C#CCc4ccccc4)cc3)[C@@H]2C1`, the active concentration was > 10 µM (inactive).

In the case of `Cc1nn(C)cc1NC(=O)C[C@H]1CC[C@H]2[C@@H](COc3ccc(NC(=O)C4CCOCC4)cc3C(=O)N2C)O1`, the active concentration was > 10 µM (inactive).

With `COCC(=O)N1[C@H](C#N)[C@@H](c2ccccc2-c2cccc(C)c2)[C@@H]1CO`, the active concentration is > 10 µM (inactive).

Regarding `CCC(=O)N1[C@H](CO)[C@H]2c3ccccc3N(S(=O)(=O)c3ccccc3C)C[C@H]21`, the active concentration is > 10 µM (inactive).

Take `COc1ccc(C#Cc2ccc3c(c2)[C@H]2[C@H](CCN2C(=O)c2cccc(F)c2)[C@@H](CO)N3)cc1`: the active concentration was > 10 µM (inactive).

Take `N#C[C@@H]1[C@H](c2ccccc2C2=CCCCC2)[C@H](CO)N1C(=O)Nc1ccccc1F`: the active concentration is > 10 µM (inactive).

As for `CN1C(=O)c2cc(NC(=O)Cc3cccs3)ccc2OC[C@@H]2O[C@@H](CC(=O)N[C@H]3CCN(Cc4ccccc4)C3)CC[C@H]21`, the active concentration is > 10 µM (inactive).

For `OC[C@@H]1[C@@H](c2ccccc2)C2(CN(Cc3nccs3)C2)N1CC1CCOCC1`, the active concentration is > 10 µM (inactive).

In the case of `O=C(C[C@H]1CC[C@H]2[C@@H](COC[C@@H](O)CN2CC2CC2)O1)NCc1ccc(Cl)cc1`, the active concentration is > 10 µM (inactive).

As to `N#C[C@H]1[C@@H](c2ccccc2-c2ccccc2F)[C@@H](CO)N1C(=O)Cc1ccccc1`, the active concentration is > 10 µM (inactive).

Regarding `COc1ccc2c3c([nH]c2c1)[C@H](CO)N(C(=O)C1CCCCC1)CC31CCN(C)CC1`, the active concentration is > 10 µM (inactive).

With `OC[C@@H]1[C@H](c2ccc(C3=CCCC3)cc2)[C@H]2CN(Cc3ccncc3)CCCCN12`, the active concentration was > 10 µM (inactive).

Take `CCCC#Cc1ccc([C@@H]2[C@H](CO)N3C(=O)CN(S(=O)(=O)c4ccccc4C)C[C@@H]23)cc1`: the active concentration was > 10 µM (inactive).

For the molecule `COCC(=O)N1CC2(C1)[C@H](c1ccc(-c3ccc(C)cc3)cc1)[C@@H](CO)N2C(C)=O`, the active concentration was > 10 µM (inactive).

Consider `COc1ccc2c3c(n(C)c2c1)[C@@H](CO)N(C(=O)Nc1cccc(F)c1)CC31CN(Cc2nccs2)C1`, for which the active concentration is > 10 µM (inactive).

Regarding `CC(C)CC#Cc1ccc([C@H]2[C@@H](CO)N3C(=O)CN(C(=O)c4ccccn4)C[C@@H]23)cc1`, the active concentration was > 10 µM (inactive).

Take `COCC(=O)N1[C@H](CO)[C@@H](c2ccccc2-c2ccccc2F)[C@@H]1C#N`: the active concentration is under 10 µM.

With `N#C[C@@H]1[C@H](c2ccccc2-c2ccccc2)[C@H](CO)N1C(=O)Cc1ccncc1`, the active concentration was > 10 µM (inactive).

Regarding `O=C(C[C@H]1CC[C@H]2[C@@H](COC[C@H](O)CN2C(=O)Nc2cc(Cl)cc(Cl)c2)O1)NCC1CCCCC1`, the active concentration is > 10 µM (inactive).

Consider `COc1ccc2c3c([nH]c2c1)[C@@H](CO)N(C(=O)c1ccc(F)cc1)CC31CCN(S(=O)(=O)c2cccs2)CC1`, for which the active concentration is > 10 µM (inactive).

As for `O=C(NCc1ccccn1)[C@@H]1[C@@H](CO)[C@@H]2Cn3c(ccc(C4=CCCC4)c3=O)[C@H]1N2Cc1cccnc1`, the active concentration is > 10 µM (inactive).

For `Cc1ccc(NC(=O)C[C@H]2CC[C@H]3[C@@H](COc4ccc(NC(=O)C5CCC5)cc4C(=O)N3C)O2)cc1`, the active concentration is > 10 µM (inactive).

Consider `CN(C)C(=O)C[C@H]1CC[C@H]2[C@@H](COC[C@H](O)CN2CC2CCCC2)O1`, for which the active concentration was > 10 µM (inactive).

For `OC[C@@H]1[C@@H]2c3ccccc3NC[C@@H]2N1Cc1ccccc1Cl`, the active concentration is > 10 µM (inactive).

Consider `CCCNC(=O)N1CC(=O)N2[C@H](CO)[C@H](c3ccc(C#CCC4CCCC4)cc3)[C@@H]2C1`, for which the active concentration is > 10 µM (inactive).

For the molecule `CN(C)C(=O)[C@H]1[C@H](CO)[C@H]2Cn3c(ccc(-c4cncnc4)c3=O)[C@H]2N1Cc1cc(F)ccc1F`, the active concentration was > 10 µM (inactive).

On to `CC(=O)N1[C@H](C(=O)NCc2ccccc2Cl)[C@@H](CO)[C@@H]2Cn3c(ccc(-c4cncnc4)c3=O)[C@@H]21`, for which the active concentration is > 10 µM (inactive).

Consider `N#C[C@H]1[C@H](c2ccccc2C2=CCCCC2)[C@@H](CO)N1C(=O)C1CCOCC1`, for which the active concentration was > 10 µM (inactive).

In the case of `O=S(=O)(c1ccc(F)cc1)N1CCCCN2[C@H](CO)[C@H](c3ccc(-c4cncnc4)cc3)[C@H]2C1`, the active concentration is > 10 µM (inactive).

Consider `COc1ccc2c3c(n(C)c2c1)[C@@H](CO)N(C)CC31CN(CC2CC2)C1`, for which the active concentration was > 10 µM (inactive).

With `COc1cccc(-c2ccccc2[C@H]2[C@@H](C#N)N(C(=O)c3ccccn3)[C@@H]2CO)c1`, the active concentration is > 10 µM (inactive).

Take `COc1ccccc1CN1CC[C@@H]2[C@H](CO)Nc3ccc(C#Cc4ccccc4)cc3[C@@H]21`: the active concentration was > 10 µM (inactive).

Regarding `C/C=C/c1ccccc1[C@@H]1[C@@H](CO)N(C(=O)CN2CCOCC2)[C@H]1C#N`, the active concentration was > 10 µM (inactive).

As for `CC=Cc1ccc2n(c1=O)C[C@@H]1[C@@H](CO)[C@H](C(=O)N3CCc4ccccc4C3)N(C(=O)C3CC3)[C@H]21` (mixture of isomers), the active concentration was > 10 µM (inactive).
